The results in this text go back to US11897886B2, “Pyrazolo[4,3-d]pyrimidines as antitumor agents” (Duquesne University of the Holy Spirit, priority 2018, dated 2024).

Where two headings read alike, the source gives them in different places. Where only a bound is given, the exact number is not on record here.

The test system of one assay is OVCAR-8. In words: Compound activity in OVCAR-8 cell line. Format: cell-based. Conditions: for IC50: OVCAR-8, read-out: OVCAR-8 IC50 (nM) ± SD.
For the next assay, the system named is NCI/ADR-RES. As to the kind of experiment: Compound activity in a P-gp overexpressing cell line NCI/ADR-RES. Format: cell-based. The note with it: for IC50: P-gp overexpressing cell line.
The target of the next assay is tubulin (Bos taurus, UniProt P81947+Q6B856). In words: Inhibition of [3H]colchicine binding to tubulin.
Another assay deals with MCF-7 WT. In words: MCF-7 WT cell activity. Type of assay: cell-based. The note with it: Homo sapiens, MCF7.
The test system of the next assay is MCF-7-TUBB3 β3-tubulin. As to the kind of experiment: MCF-7-TUBB3 (β3-tubulin) cell activity. Format: cell-based.
The next assay relates to MCF-7/TAX Pgp. As to the kind of experiment: MCF-7/TAX (Pgp) cell activity. Type of assay: cell-based. Conditions: for EC50: Homo sapiens, MCF7.
For a further assay, the system named is MIA PaCa-2. As to the kind of experiment: MIA PaCa-2 cell line activity. Type of assay: cell-based. The note with it: Table 2, read-out: MIA PaCa-2 (nM ± SD).
Where [1] appears, read: Homo sapiens, NCI/ADR-RES, Table 1, read-out: NCl/ADR-RES IC50 (nM) ± SD.
Where [2] appears, read: Homo sapiens, NCI/ADR-RES, Table 2, read-out: NCI/ADR-RES IC50 (nM) ± SD.

Chain of tubulin (Q6B856 whole entry): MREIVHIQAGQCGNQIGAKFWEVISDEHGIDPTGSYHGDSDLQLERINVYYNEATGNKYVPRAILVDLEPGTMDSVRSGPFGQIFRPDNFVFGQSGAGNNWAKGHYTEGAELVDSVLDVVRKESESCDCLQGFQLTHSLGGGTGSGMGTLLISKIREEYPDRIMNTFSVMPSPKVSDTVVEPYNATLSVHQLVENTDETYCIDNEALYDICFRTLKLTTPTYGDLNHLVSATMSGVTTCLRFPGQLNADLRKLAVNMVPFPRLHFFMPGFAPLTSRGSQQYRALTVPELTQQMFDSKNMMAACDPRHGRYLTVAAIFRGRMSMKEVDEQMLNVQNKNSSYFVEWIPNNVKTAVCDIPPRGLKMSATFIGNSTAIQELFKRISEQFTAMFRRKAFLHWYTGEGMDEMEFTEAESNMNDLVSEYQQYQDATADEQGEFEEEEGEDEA
Chain of tubulin (P81947 whole entry): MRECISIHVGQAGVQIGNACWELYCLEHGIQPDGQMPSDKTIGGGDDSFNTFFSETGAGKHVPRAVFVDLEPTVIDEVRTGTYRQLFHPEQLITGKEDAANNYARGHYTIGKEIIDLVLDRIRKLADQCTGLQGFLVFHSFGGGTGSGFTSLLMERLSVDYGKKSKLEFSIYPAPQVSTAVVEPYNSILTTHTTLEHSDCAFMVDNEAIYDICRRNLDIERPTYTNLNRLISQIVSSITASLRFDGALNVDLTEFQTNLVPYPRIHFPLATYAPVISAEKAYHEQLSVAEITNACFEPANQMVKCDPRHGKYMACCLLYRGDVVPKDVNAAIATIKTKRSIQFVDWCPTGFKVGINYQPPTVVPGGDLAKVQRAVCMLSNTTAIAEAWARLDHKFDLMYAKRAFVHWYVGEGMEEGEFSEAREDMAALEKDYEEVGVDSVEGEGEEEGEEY

As for `COc1ccc(Nc2nc(Cl)nc3cnn(C)c23)cc1` [Compound 11, 5-chloro-N-(4-methoxyphenyl)-1-methyl-1H-pyrazolo[4,3-d]pyrimidin-7-amine], the “activity in OVCAR-8 cell line” value in the assay on OVCAR-8 is reported as “not active”. The IC50 is above 5000 nM in the assay with OVCAR-8 (Homo sapiens, Table 1) and above 5000 nM with NCI/ADR-RES (setting [1]). Moreover, the “activity in NCI/ADR-RES cell line” value in the assay on NCI/ADR-RES is “not active”. In addition, the “colchicine inhibition” value on tubulin was “did not show colchicine inhibition”.

Take `COc1cccc2cc(N(C)c3nc(Cl)nc4cnn(C)c34)ccc12` [Compound 7, 5-chloro-N-(5-methoxynaphthalen-2-yl)-N,1-dimethyl-1H-pyrazolo[4,3-d]pyrimidin-7-amine]: the IC50 in the assay on OVCAR-8 (Homo sapiens, Table 1) amounted to 14 ± 3 nM; with NCI/ADR-RES (setting [1]), 11 ± 0.7 nM; with NCI/ADR-RES (setting [2]), 11 ± 0.7 nM. Besides, the half-maximal effective concentration (EC50) was determined as 0.0352 ± 0.0047 µM in the assay on MCF-7 WT, 0.0168 ± 0.0015 µM in the assay on MCF-7-TUBB3 β3-tubulin and 0.043 ± 0.0072 µM in the assay on MCF-7/TAX Pgp. Further, in the assay on MCF-7-TUBB3 β3-tubulin (MCF-7-TUBB3 vs MCF-7 WT), the “RESISTANCE RATIO β3-tubulin/WT” value stood at 0.5. Further, the “RESISTANCE RATIO Pgp/WT” value with MCF-7/TAX Pgp (MCF-7/TAX vs MCF-7 WT) was 1.2.

`CN(c1ccc(OC(F)(F)F)cc1)c1nc(Cl)nc2cnn(C)c12` [Compound 10, 5-chloro-N,1-dimethyl-N-(4-(trifluoromethoxy)phenyl)-1H-pyrazolo[4,3-d]pyrimidin-7-amine]: the IC50 in the assay with OVCAR-8 (Homo sapiens, Table 1) amounted to 880 ± 40 nM; with NCI/ADR-RES (setting [1]), 730 ± 100 nM; in the assay on NCI/ADR-RES (setting [2]) it was 730 ± 100 nM.

Turning to `CSc1ccc(N(C)c2nc(Cl)nc3cnn(C)c23)cc1` [Compound 5, 5-chloro-N,1-dimethyl-N-(4-(methylthio)phenyl)-1H-pyrazolo[4,3-d]pyrimidin-7-amine], the IC50 in the assay on OVCAR-8 (Homo sapiens, Table 1) was 31 ± 2 nM; in the assay on NCI/ADR-RES (setting [1]), 17 ± 3 nM; in the assay on NCI/ADR-RES (setting [2]) it was 17 ± 3 nM; with MIA PaCa-2 (Homo sapiens), 20.9 ± 0.651 nM.

For the molecule `Nc1nc2[nH]cc(CCc3ccc(C(=O)N[C@@H](CCC(=O)O)C(=O)O)cc3)c2c(=O)[nH]1` [PMX, reference compound], in the assay on MIA PaCa-2, the IC50 was 16.1 ± 1.4 nM.

On to `Nc1ccn([C@@H]2O[C@H](CO)[C@@H](O)C2(F)F)c(=O)n1` [GEM, reference compound], for which the IC50 in the assay with MIA PaCa-2 worked out at 297 nM.

Regarding `COc1ccc(N(C)c2nc(Cl)nc3cnn(C)c23)cc1` [Compound 4, 5-chloro-N-(4-methoxyphenyl)-N,1-dimethyl-1H-pyrazolo[4,3-d]pyrimidin-7-amine], the IC50 in the assay with OVCAR-8 (Homo sapiens, Table 1) amounted to 9 ± 0.7 nM; with NCI/ADR-RES (setting [1]), 5 nM; with NCI/ADR-RES (setting [2]), 5 nM; in the assay with MIA PaCa-2 (Homo sapiens), 22.7 ± 1.13 nM. Besides, the half-maximal effective concentration (EC50) is 0.002 ± 0.0003 µM with MCF-7 WT, 0.0033 ± 0.0004 µM in the assay with MCF-7-TUBB3 β3-tubulin and 0.0151 ± 0.002 µM in the assay on MCF-7/TAX Pgp. Moreover, the “RESISTANCE RATIO β3-tubulin/WT” value in the assay on MCF-7-TUBB3 β3-tubulin (MCF-7-TUBB3 vs MCF-7 WT) came out at 1.1. Besides, the “RESISTANCE RATIO Pgp/WT” value with MCF-7/TAX Pgp (MCF-7/TAX vs MCF-7 WT) was determined as 3.8.

Consider `COc1ccc(N(C)c2nc(Cl)nc3cnn(C)c23)cc1F` [Compound 6d7, 5-chloro-N-(3-fluoro-4-methoxyphenyl)-N,1-dimethyl-1H-pyrazolo[4,3-d]pyrimidin-7-amine], for which the IC50 is 9 ± 1 nM with OVCAR-8 (Homo sapiens, Table 2) and 7 ± 3 nM in the assay on NCI/ADR-RES (setting [2]). Also, the EC50 in the assay with MCF-7 WT came to 0.0017 ± 0.0002 µM; with MCF-7-TUBB3 β3-tubulin, 0.0026 ± 0.0004 µM; with MCF-7/TAX Pgp, 0.0081 ± 0.0002 µM. Also, the “RESISTANCE RATIO β3-tubulin/WT” value in the assay with MCF-7-TUBB3 β3-tubulin (MCF-7-TUBB3 vs MCF-7 WT) turned out to be 1.6. In addition, in the assay on MCF-7/TAX Pgp (MCF-7/TAX vs MCF-7 WT), the “RESISTANCE RATIO Pgp/WT” value turned out to be 4.8.

On to `COc1ccc2c(c1)CCCN2c1nc(Cl)nc2cnn(C)c12` [Compound 6, 1-(5-chloro-1-methyl-1H-pyrazolo[4,3-d]pyrimidin-7-yl)-6-methoxy-1,2,3,4-tetrahydroquinoline], for which the IC50 was 17 ± 2 nM with OVCAR-8 (Homo sapiens, Table 1); 8 ± 0.7 nM with NCI/ADR-RES (setting [1]); 8 ± 0.7 nM with NCI/ADR-RES (setting [2]); 48 ± 2.77 nM with MIA PaCa-2 (Homo sapiens).

Turning to `CC(C)Oc1ccc(N(C)c2nc(Cl)nc3cnn(C)c23)cc1` [Compound 9, 5-chloro-N-(4-isopropoxyphenyl)-N,1-dimethyl-1H-pyrazolo[4,3-d]pyrimidin-7-amine], the IC50 with OVCAR-8 (Homo sapiens, Table 1) came out at 49 ± 10 nM; with NCI/ADR-RES (setting [1]), 44 ± 8 nM; with NCI/ADR-RES (setting [2]), 44 ± 8 nM.

With `COc1ccc(/C=C\c2cc(OC)c(OC)c(OC)c2)cc1O` [CS-A4, Combretastatin A-4, reference compound], the IC50 was 3.5 ± 0.7 nM in the assay with OVCAR-8 (Table 1); 3.5 ± 0.7 nM in the assay with OVCAR-8 (Table 2); 2.3 ± 0.4 nM in the assay with NCI/ADR-RES (Table 1, read-out: NCl/ADR-RES IC50 (nM) ± SD); 2.3 ± 0.4 nM in the assay on NCI/ADR-RES (Table 2, read-out: NCI/ADR-RES IC50 (nM) ± SD).

Take `CC(=O)O[C@H]1C(=O)[C@@]2(C)[C@H]([C@H](OC(=O)c3ccccc3)[C@]3(O)C[C@H](OC(=O)[C@H](O)[C@@H](NC(=O)c4ccccc4)c4ccccc4)C(C)=C1C3(C)C)[C@]1(OC(C)=O)CO[C@@H]1C[C@@H]2O` [Paclitaxel, reference compound]: the IC50 was 7 ± 2 nM with OVCAR-8 (Homo sapiens, Table 1); above 5000 nM in the assay on NCI/ADR-RES (setting [1]); above 5000 nM with NCI/ADR-RES (setting [2]). Moreover, the figures for the concentration giving a half-maximal response (EC50) in the assay with MCF-7 WT, in the assay on MCF-7-TUBB3 β3-tubulin and with MCF-7/TAX Pgp were 0.194 µM, 2.07 µM and 3.23 µM, respectively. For the same molecule, the “[…] β3-tubulin/WT” value in the assay with MCF-7-TUBB3 β3-tubulin (MCF-7-TUBB3 vs MCF-7 WT) is reported as 10.6. For the same molecule, the “[…] Pgp/WT” value with MCF-7/TAX Pgp (MCF-7/TAX vs MCF-7 WT) amounted to 16.6.

Turning to `CCOc1ccc(N(C)c2nc(Cl)nc3cnn(C)c23)cc1` [Compound 8, 5-chloro-N-(4-ethoxyphenyl)-N,1-dimethyl-1H-pyrazolo[4,3-d]pyrimidin-7-amine], the IC50 in the assay with OVCAR-8 (Homo sapiens, Table 1) came to 2 ± 1 nM; with NCI/ADR-RES (setting [1]) it was 4 ± 1 nM; in the assay on NCI/ADR-RES (setting [2]), 4 ± 1 nM. Further, in the assay with OVCAR-8 (over compound 4), the “fold improvement of OVCAR-8 cell line activity” value is listed as “around 4 fold”. For the same molecule, the EC50 in the assay on MCF-7 WT is 0.0077 ± 0.0007 µM; with MCF-7-TUBB3 β3-tubulin, 0.0097 ± 0.001 µM; with MCF-7/TAX Pgp, 0.0313 ± 0.0035 µM. Also, the “RESISTANCE RATIO β3-tubulin/WT” value in the assay on MCF-7-TUBB3 β3-tubulin (MCF-7-TUBB3 vs MCF-7 WT) was found to be 1.3. Also, the “RESISTANCE RATIO Pgp/WT” value in the assay with MCF-7/TAX Pgp (MCF-7/TAX vs MCF-7 WT) was 4.0.

What is called EC50 is the concentration needed to bring the measured effect to its halfway point. Read a low EC50 as an effect from little substance.
